From patent EP4371976B1, “IONIZABLE LIPIDS AND LIPID NANOPARTICLES CONTAINING THEREOF” (Certest Biotec, S.L., priority 2022, dated 2024)

What was measured:
[1] = RNA encapsulation efficiency of LNPs by Quant-IT Ribogreen; assay type: physicochemical; details: for Encaps. efficiency (%): LNPs with luciferase mRNA, ionizable lipid:non-cationic lipid:sterol:PEG-modified lipid 50:10:38.5:1.5, percentage of RNA entrapped in the LNP; for Encaps. efficiency: Table 8, LNP 50:10:38.5:1.5, luciferase mRNA
Outline: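 Ribogreen dye assay per manufacturer quantified encapsulated mRNA. Particles were made by adding mRNA in water to the ethanol phase, then 1:1 Tris dilution and overnight dialysis into Tris/15% sucrose; final mRNA set to 100 µg/ml.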

[2] = test system: Female BALB/c mice; assay: Firefly luciferase expression (total flux, IVIS imaging) in mice after injection of mRNA-loaded LNPs; assay type: in vivo; details: for Total Flux: Table 8, mice, intramuscular, 5 µg luciferase mRNA in 50 µl, LNP 50:10:38.5:1.5; for protein expression in mice (transfection results): Figure 1 legend, LNPs containing RNA
Protocol: For in vivo administration, mRNA comprising in the 5' to 3' direction a sequence encoding for luciferase of SEQ ID NO:1, was encapsulated into LNPs following the procedure described in Hassett, K. J. et al., "Optimization of Lipid Nanoparticles for Intramuscular Administration of mRNA Vaccines", 2019, Mol. Ther. Nucleic Acid, vol. 15, pp. 1-11. Briefly, the purified mRNAs were first diluted in sodium citrate buffer at pH=4 at a final concentration of 266 µg/ml. Separately, a mixture of the ionizable lipid of the invention:DSPC (Merk 850365P):cholesterol (Sigma C3045):DMG-PEG2000 (Cayman 33945-1) were dissolved into ethanol at the respective molar percentages of 50:10:38.5:1.5, and with a lipid-nitrogen-to-phosphate ratio (N:P) ratio of 5,5:1.
The mRNA aqueous solution was then carefully added to the ethanol solution, and the resulted solution was homogenized by pipetting up and down for 4-5 times. The resulting LNPs were immediately diluted 1:1 with Tris buffer and dialyzed overnight against Tris buffer containing 15% sucrose. The resulting LNP solution was then collected, and the encapsulated mRNA was assessed by Quant-IT® Ribogreen (Invitrogen R11490) following the manufacturer's instructions.
Female BALB/c mice (Charles River Laboratories), 8-10-week-old, weighting 18-23 g, were acclimatized to new conditions upon arrival to experimental facilities for 3-7 days. Housing conditions were room temperature 20-24 °C, humidity 50-70 %, and light intensity 60 lux with a light-dark cycle of 12 hours.
For Firefly Luciferase activity measurement in mice, LNPs produced as indicated above (ionizable lipid:helper lipid: sterol:PEG-modified lipid → 50:10:38.5:1.5) and containing 5 µg of the indicated mRNA in 50 µl final volume, were injected intramuscularly.
From 4 to 72 hours after RNA-LPN inoculation mice were anaesthetized by inhalation with 4% of isoflurane using a vaporizer. The maintenance of the anaesthesia was performed at 1.5% of isoflurane. Then, D-luciferin (Quimigen, 12507) was injected intraperitoneally at 150 mg/kg, normally ~200 µL of the stock at 15 mg/mL in PBS for a 20 g mouse. Luciferase images were acquired 10 minutes after luciferin inoculation using the IVIS Lumina XRMS Imaging System following manufacturer's instructions.

[3] = Size distribution, polydispersity and Z-potential of LNPs by dynamic light scattering (Malvern Zetasizer); assay type: physicochemical; details: LNPs, standard formulation 50:10:38.5:1.5; DLS
Protocol: The LNP solution was then adjusted to a final concentration of mRNA of 100 µg/ml. Size distribution, polydispersity and Z-potential were measured by dynamic light scattering (DLS) using Malvern Zetasizer Advance Lab Blue Label. RNA encapsulation was assessed by Quant-IT® Ribogreen following the manufacturer's instructions.

CCCCCCCCCCCCCCCCCCOC(=O)CCSCCC(NC(=O)C(CCCCCC)CCCCCCCC)C(=O)NCCCn1ccnc1 (stereo not shown) [VC-LC-0262]
Encaps. efficiency (%) [1]: 33.79% | Encaps. efficiency [1]: 33.79% | Total Flux [2]: 7.5E+07 p·s^-1 | P.D.I. [3]: 0.11 | Particle size/ Ø (nm) [3]: 143.8 nm | Z Potential (± D.E.) [mV] [3]: -10.53 mV

CCCCCCCC/C=C\CCCCCCCC(=O)NC(CCSCCC(=O)OCCCCCCCCCCCCC)C(=O)NCCCN(CCO)CCO (stereo not shown) [VC-LC-0289]
Encaps. efficiency (%) [1]: 89.26% | Encaps. efficiency [1]: 89.3% | protein expression in mice (transfection results) [2]: good transfection results | Total Flux [2]: 2.329E+07 p·s^-1 | P.D.I. [3]: 0.2 | Particle size/ Ø (nm) [3]: 207.1 nm | Z Potential (± D.E.) [mV] [3]: -0.34 mV

CCCCCCCCC(CCCCCCCC)OC(=O)C(CSCCC(=O)OCCCCCC(C)C)CC(=O)NCCCn1ccnc1 (stereo not shown) [VC-LC-0302]
Encaps. efficiency (%) [1]: 40.58% | Encaps. efficiency [1]: 40.6% | Total Flux [2]: 7.9E+07 p·s^-1 | P.D.I. [3]: 0.13 | Particle size/ Ø (nm) [3]: 112.3 nm | Z Potential (± D.E.) [mV] [3]: -9.30 mV

CCCCCCCC/C=C\CCCCCCCC(=O)NC(CCSCCC(=O)OCC(CCCCCCCCCC)CCCCCCCCCCCC)C(=O)NCCCN1CCOCC1 (stereo not shown) [VC-LC-0353]
Encaps. efficiency (%) [1]: 57.26% | Encaps. efficiency [1]: 57.26% | protein expression in mice (transfection results) [2]: good transfection results | Total Flux [2]: 5.2E+07 p·s^-1 | P.D.I. [3]: 0.1 | Particle size/ Ø (nm) [3]: 175.8 nm | Z Potential (± D.E.) [mV] [3]: -8.97 mV

CCCCCCCC/C=C\CCCCCCCCOC(=O)CCSCCC(NC(=O)CCCCCCC/C=C\CCCCCCCC)C(=O)NCCCN1CCOCC1 (stereo not shown) [VC-LC-0355]
Encaps. efficiency (%) [1]: 81.58% | Encaps. efficiency [1]: 81.6% | protein expression in mice (transfection results) [2]: good transfection results | Total Flux [2]: 2.39E+07 p·s^-1 | P.D.I. [3]: 0.3 | Particle size/ Ø (nm) [3]: 242.2 nm | Z Potential (± D.E.) [mV] [3]: -4.71 mV

CCCCCCCC/C=C\CCCCCCCC(=O)NC(CCSCCC(=O)OCC(CCCCCCCCCC)CCCCCCCCCCCC)C(=O)NC1CCN(C)CC1 (stereo not shown) [VC-LC-0356]
Encaps. efficiency (%) [1]: 68.27% | Encaps. efficiency [1]: 68.3% | Total Flux [2]: 3.83E+07 p·s^-1 | P.D.I. [3]: 0.09 | Particle size/ Ø (nm) [3]: 218.9 nm | Z Potential (± D.E.) [mV] [3]: -10.96 mV

CCCCCCCCCCCCCOC(=O)CCSCCC(C(=O)NCCCn1ccnc1)C(=O)OC(CCCCCCCC)CCCCCCCC (stereo not shown) [VC-LC-0362]
Encaps. efficiency (%) [1]: 73.55% | Encaps. efficiency [1]: 73.5% | Total Flux [2]: 3.31E+07 p·s^-1 | P.D.I. [3]: 0.14 | Particle size/ Ø (nm) [3]: 121.1 nm | Z Potential (± D.E.) [mV] [3]: -13.94 mV

CCCCCCCCCCCCCCOC(=O)CCSCCC(C(=O)NCCCn1ccnc1)C(=O)OC(CCCCCCCC)CCCCCCCC (stereo not shown) [VC-LC-0367]
Encaps. efficiency (%) [1]: 47.47% | Encaps. efficiency [1]: 47.5% | Total Flux [2]: 3.16E+07 p·s^-1 | P.D.I. [3]: 0.19 | Particle size/ Ø (nm) [3]: 134.6 nm | Z Potential (± D.E.) [mV] [3]: -15.48 mV

CCCCCCCCCCCCCCCCCC(=O)NC(CCSCCC(=O)OCCCCCCCCCCCCC)C(=O)NCCCN1CCOCC1 (stereo not shown) [VC-LC-0374]
Encaps. efficiency (%) [1]: 70.37% | protein expression in mice (transfection results) [2]: good transfection results | P.D.I. [3]: 0.16 | Particle size/ Ø (nm) [3]: 174.7 nm | Z Potential (± D.E.) [mV] [3]: -9.62 mV

CCCCCCCCCCCCCCCCCC(=O)NC(CCSCCC(=O)OCC(CCCCCCCCCC)CCCCCCCCCCCC)C(=O)NCCCN1CCOCC1 (stereo not shown) [VC-LC-0389]
Encaps. efficiency (%) [1]: 76.40% | protein expression in mice (transfection results) [2]: good transfection results | P.D.I. [3]: 0.26 | Particle size/ Ø (nm) [3]: 218 nm | Z Potential (± D.E.) [mV] [3]: -9.68 mV

CCCCCCCCC(CCCCCC)COC(=O)CCSCCC(C(=O)NC1CCN(C)CC1)C(=O)OC(CCCCCCCC)CCCCCCCC (stereo not shown) [VC-LC-0439]
Encaps. efficiency (%) [1]: 91.14% | Encaps. efficiency [1]: 91.1% | Total Flux [2]: 2.39E+07 p·s^-1 | P.D.I. [3]: 0.1 | Particle size/ Ø (nm) [3]: 144.8 nm | Z Potential (± D.E.) [mV] [3]: -6.48 mV

CCCCCCCCCCCCCOC(=O)CCSCCC(C(=O)NC1CCN(C)CC1)C(=O)OC(CCCCCCCC)CCCCCCCC (stereo not shown) [VC-LC-0441]
Encaps. efficiency (%) [1]: 78.30% | Encaps. efficiency [1]: 78.3% | Total Flux [2]: 2.2E+07 p·s^-1 | P.D.I. [3]: 0.12 | Particle size/ Ø (nm) [3]: 186.5 nm | Z Potential (± D.E.) [mV] [3]: -4.04 mV

CCCCCCCC#CCOC(=O)CCSCCC(C(=O)NC1CCN(C)CC1)C(=O)OC(CCCCCCCC)CCCCCCCC (stereo not shown) [VC-LC-0442]
Encaps. efficiency (%) [1]: 87.80% | Encaps. efficiency [1]: 87.8% | Total Flux [2]: 2.95E+07 p·s^-1 | P.D.I. [3]: 0.12 | Particle size/ Ø (nm) [3]: 171.8 nm | Z Potential (± D.E.) [mV] [3]: -4.19 mV

CCCCCCCCCCCCC(CCCCCCCCCC)COC(=O)CCSCCC(NC(=O)C(CCCCCC)CCCCCCCC)C(=O)NCCN(CC)CC (stereo not shown) [VC-LC-0487]
Encaps. efficiency (%) [1]: 62.43% | Encaps. efficiency [1]: 62.43% | Total Flux [2]: 6.9E+07 p·s^-1 | P.D.I. [3]: 0.17 | Particle size/ Ø (nm) [3]: 156.3 nm | Z Potential (± D.E.) [mV] [3]: -9.59 mV

CCCCCCCCCCCCCOC(=O)CCSCCC(NC(=O)C(CCCCCC)CCCCCCCC)C(=O)NCC1CCN(C)CC1 (stereo not shown) [VC-LC-0490]
Encaps. efficiency (%) [1]: 97.16% | Encaps. efficiency [1]: 97.2% | Total Flux [2]: 1.7E+07 p·s^-1 | P.D.I. [3]: 0.18 | Particle size/ Ø (nm) [3]: 136.1 nm | Z Potential (± D.E.) [mV] [3]: 0.83 mV

CCCCCCCCCCCCCOC(=O)CCSCCC(NC(=O)C(CCCCCCCC)CCCCCCCCCC)C(=O)NCC1CCN(C)CC1 (stereo not shown) [VC-LC-0507]
Encaps. efficiency (%) [1]: 95.15% | Encaps. efficiency [1]: 95.2% | Total Flux [2]: 2.29E+07 p·s^-1 | P.D.I. [3]: 0.13 | Particle size/ Ø (nm) [3]: 151.1 nm | Z Potential (± D.E.) [mV] [3]: -2.76 mV

CCCCCCCCCCCCC(CCCCCCCCCC)COC(=O)CCSCCC(NC(=O)C(CCCCCCCC)CCCCCCCCCC)C(=O)NCC1CCN(C)CC1 (stereo not shown) [VC-LC-0521]
Encaps. efficiency (%) [1]: 52.01% | Encaps. efficiency [1]: 52.01% | Total Flux [2]: 1.1E+08 p·s^-1 | P.D.I. [3]: 0.071 | Particle size/ Ø (nm) [3]: 153.1 nm | Z Potential (± D.E.) [mV] [3]: -4.50 mV

CCCCCCCCCCCCCOC(=O)CCSCC(CC(=O)NCCCN1CCOCC1)C(=O)OC(CCCCCCCC)CCCCCCCC (stereo not shown) [VC-LC-0540]
Encaps. efficiency (%) [1]: 43.65% | Encaps. efficiency [1]: 43.65% | Total Flux [2]: 1.3E+08 p·s^-1 | P.D.I. [3]: 0.11 | Particle size/ Ø (nm) [3]: 140.3 nm | Z Potential (± D.E.) [mV] [3]: -8.47 mV

CCCCCCCCCCCCCCCCCCOC(=O)CCSCC(CC(=O)NCCCN1CCOCC1)C(=O)OC(CCCCCCCC)CCCCCCCC (stereo not shown) [VC-LC-0546]
Encaps. efficiency (%) [1]: 39.62% | Encaps. efficiency [1]: 39.6% | Total Flux [2]: 2.54E+07 p·s^-1 | P.D.I. [3]: 0.14 | Particle size/ Ø (nm) [3]: 164.2 nm | Z Potential (± D.E.) [mV] [3]: -10.43 mV

CCCCCCCCCCCCCCCCOC(=O)CCSCC(CC(=O)NCCCN1CCOCC1)C(=O)OC(CCCCCCCC)CCCCCCCC (stereo not shown) [VC-LC-0547]
Encaps. efficiency (%) [1]: 31.52% | Encaps. efficiency [1]: 31.52% | Total Flux [2]: 1.1E+08 p·s^-1 | P.D.I. [3]: 0.18 | Particle size/ Ø (nm) [3]: 168 nm | Z Potential (± D.E.) [mV] [3]: -13.52 mV
